Source: patent US20260116845A1, “LIPIDS AND COMPOSITIONS THEREOF” (Kernal Biologics, Inc., priority 2023, published 2026)

Assays:
Assay type in all cases: cell-based
Conditions in all cases: 200 ng Fluc mRNA-LNP, 24 hours; Table 4
AML12 Cell Line = test: Transfection of AML12 Cell Line with FLuc mRNA LNPs (ONE-Glo EX luciferase signal)
Experimental: (§1) mRNA encapsulated lipid nanoparticles (mRNA LNPs) were formulated using microfluidic mixing with a PNI Ignite instrument. Briefly, lipids (ionizable: structural: helper: PEG) were dissolved in ethanol and mixed with and aqueous solution of mRNA. These mRNA-loaded dispersions were then neutralized via a buffer exchange with a pre-determined buffer overnight. Afterwards, formed LNPs were concentrated with Amicon filter centrifugation, filtered, concentration of mRNA determined through a ribogreen assay, and frozen at −80° C. until use.
(§2) Cell lines were grown to confluence in T75 flasks using complete media of DMEM-F12 for AML12 and DMEM for both B16F10 and MC38.K. Cells were plated in a white 96 flat-well plate (AML12=20,000 cells/well, B16F10 and MC38.K=5,000 cells/well) with their respected media. Lipid nanoparticles were first diluted to 50 μg/ml using Opti-MEM and pre-incubated with mouse serum for 30 minutes to give an LNP concentration of 8 μg/ml. Cell media was replaced with Opti-MEM and LNPs were added to cells (200 ng of mRNA-LNP), placed back in the incubator, and allowed to transfect for 24 hours. Afterwards, 100 μl of Promega's ONE-Glo™ EX Luciferase Assay System or Promega's CellTiter-Glo® Luminescent Cell Viability Assay was added and mixed in their respective wells, followed by recording luminescence signals on a Thermo Scientific Varioskan LUX multimode microplate reader. The results are shown in FIG. 1, FIG. 2, FIG. 3, FIG. 4, FIG. 5, FIG. 6, FIG. 10, FIG. 11, and FIG. 21.

B16F10 Cell Line = test: Transfection of B16F10 Cell Line with FLuc mRNA LNPs (ONE-Glo EX luciferase signal)
Experimental: as §1, §2

MC38.K Cell Line = test: Transfection of MC38.K Cell Line with FLuc mRNA LNPs (ONE-Glo EX luciferase signal)
Experimental: as §1, §2

SMILES | Total Luciferin Signal (RLU) In Vitro - AML12 (AML12 Cell Line) [RLU] | Total Luciferin Signal (RLU) In Vitro - B16F10 (B16F10 Cell Line) [RLU] | Total Luciferin Signal (RLU) In Vitro - MC38.K (MC38.K Cell Line) [RLU]
CCCCCCCCCC(=O)OCCCCCCCN(CCO)CCCCCCCOC(=O)CCCCCCCCC [Compound 47] | 3.52E+04 | 3.88E+04 | 5.18E+04
CCCCCCCCC(CCCCCCCC)OC(=O)CCCCCCCN(CCO)CCCCCCCC(=O)OCCCCCCCCF [Compound 21] | 4.09E+05 | 1.03E+05 | 1.16E+06
CCCCCCCCC(CCCCCCCC)C(=O)OCCCCCCCN(CCCCCC(=O)OCCCCCCCCC(C)C)CCOC(=O)CCCN(C)C [Compound 7] | 1.48E+06 | 1.11E+06 | 1.35E+06
CCCCCCCCC(CCCCCCCC)OC(=O)CCCCCN(CCO)CCCCCC(=O)OC(CCCCCCCC)CCCCCCCC [Compound 51] | 1.01E+06 | 1.28E+06 | 1.70E+06
CCCCC(CCCCCCF)C(=O)OCCCCCCCCN(CCO)CCCCCCC(C)C(=O)OCCCCCCCCC(C)C (stereo not drawn) [Compound 79, 8-((2-hydroxyethyl)(7-methyl-8-((9-methyldecyl)oxy)-8-oxooctyl)amino)octyl 2-butyl-8-fluorooctanoate] | 7.26E+05 | 1.84E+06 | 1.65E+07
CCCCCCCCC(CCCCCCCCF)C(=O)OCCCCCCCN(CCCCO)CCCCCCCOC(=O)C(C)CCCCCCCC(C)C (stereo not drawn) [Compound 89, 7-((7-((10-fluoro-2-octyldecanoyl)oxy)heptyl)(4-hydroxybutyl)amino)heptyl 2,10-dimethylundecanoate] | 7.66E+06 | 9.61E+06 | 3.88E+07
CCCCCCCCC(CCCCCCCCF)C(=O)OCCCCCCCN(CCO)CCCCCCCOC(=O)C(C)CCCCCCCC(C)C (stereo not drawn) [Compound 87, 7-((7-((10-fluoro-2-octyldecanoyl)oxy)heptyl)(2-hydroxyethyl)amino)heptyl 2,10-dimethylundecanoate] | 1.52E+06 | 3.16E+06 | 6.61E+06
CCCCCCCCCOC(=O)C(C)CCCCCCN(CCO)CCCCCCCCOC(=O)C(CCCC)CCCCCCF (stereo not drawn) [Compound 74, 8-((2-hydroxyethyl)(7-methyl-8-(nonyloxy)-8-oxooctyl)amino)octyl 2-butyl-8-fluorooctanoate] | 2.80E+04 | 6.66E+04 | 1.94E+05
CCCCCCCCCCCOC(=O)CCCCCN(CCO)CCCCCC(=O)OCCCCCCCCCCC [Compound 49] | 1.75E+04 | 9.79E+03 | 2.99E+04
CCCCCCCCCOC(=O)C(C)CCCCCCN(CCO)CCCCCCCC(=O)OCC(CCCCCC)CCCCCCCCF (stereo not drawn) [Compound 78, nonyl 8-((8-((10-fluoro-2-hexyldecyl)oxy)-8-oxooctyl)(2-hydroxyethyl)amino)-2-methyloctanoate] | 2.42E+06 | 6.65E+06 | 2.21E+07
CCCCCCCCC(CCCCCCCC)OC(=O)CCCCCCCN(CCCCCCCC(=O)OCCCCCCCCC(C)C)CCOC(=O)CCCN(C)CCO [Compound 5] | 2.04E+05 | 1.79E+06 | 4.09E+06
CCCCCCCCC(CCCCCCCC)OC(=O)CCCCCCCN(CCCCCOC(=O)CCCCCCCCC(C)C)CCOC(=O)CCCN(C)C [Compound 15] | 1.53E+06 | 1.97E+06 | 6.94E+05
CCCCCCCCCOC(=O)C(C)CCCCCCN(CCCCO)CCCCCCCCOC(=O)C(CCCC)CCCCCCF (stereo not drawn) [Compound 76, 8-((4-hydroxybutyl)(7-methyl-8-(nonyloxy)-8-oxooctyl)amino)octyl 2-butyl-8-fluorooctanoate] | 3.79E+04 | 7.14E+04 | 2.38E+05
CCCCCCCCC(CCCCCCCC)OC(=O)CCCCCCCN(CCO)CCCCCCCC(=O)OC(CCCCCCCC)CCCCCCCC [Compound 44] | 8.87E+05 | 1.26E+06 | 3.17E+06
CCCCCCCCC(CCCCCCCC)OC(=O)CCCCCN(CCCCCC(=O)OCCCCCCCCCCC(C)C)CCOC(=O)CCCN(C)C [Compound 17] | 6.34E+05 | 2.64E+06 | 1.15E+06
CCCCCCCCCOC(=O)CCCCCCCN(CCCCO)CCCCCCCCOC(=O)C(CCCC)CCCCCCF (stereo not drawn) [Compound 81, 8-((4-hydroxybutyl)(8-(nonyloxy)-8-oxooctyl)amino)octyl 2-butyl-8-fluorooctanoate] | 4.91E+04 | 5.85E+04 | 2.47E+06
CCCCCCCCCOC(=O)CCCCCN(CCO)CCCCCC(=O)OCCCCCCCCC [Compound 50] | 1.54E+04 | 1.30E+04 | 1.85E+04
CCCCCCC(CCCCCCCCF)COC(=O)CCCCCCCN(CCCCO)CCCCCCC(C)C(=O)OCCCCCCCCC(C)C (stereo not drawn) [Compound 86, 9-methyldecyl 8-((8-((10-fluoro-2-hexyldecyl)oxy)-8-oxooctyl)(4-hydroxybutyl)amino)-2-methyloctanoate] | 3.99E+06 | 7.58E+06 | 3.80E+07
CCCCCCC(CCCCCCCCF)COC(=O)CCCCCCCN(CCO)CCCCCCC(C)C(=O)OCCCCCCCCC(C)C (stereo not drawn) [Compound 73, 9-methyldecyl 8-((8-((10-fluoro-2-hexyldecyl)oxy)-8-oxooctyl)(2-hydroxyethyl)amino)-2-methyloctanoate] | 2.93E+06 | 7.08E+06 | 1.77E+07
CCCCCCCCCOC(=O)CCCCCCCN(CCO)CCCCCCCC(=O)OCC(CCCCCCCC)CCCCCCCCF (stereo not drawn) [Compound 80, 10-fluoro-2-octyldecyl 8-((2-hydroxyethyl)(8-(nonyloxy)-8-oxooctyl)amino)octanoate] | 3.01E+06 | 2.97E+06 | 1.95E+07
CCCCCCCCCOC(=O)CCCCCCCN(CCO)CCCCCCCC(=O)OC(CCCCCCCC)CCCCCCCCCl (stereo not drawn) [Compound 83, 1-chloroheptadecan-9-yl 8-((2-hydroxyethyl)(8-(nonyloxy)-8-oxooctyl)amino)octanoate] | 1.85E+05 | 4.41E+05 | 2.14E+06
CCCCCCCCC(CCCCCCCC)C(=O)OCCCCCCCN(CCO)CCCCCCCOC(=O)C(CCCCCCCC)CCCCCCCC [Compound 46] | 1.30E+06 | 1.48E+06 | 4.59E+06
CCCCCCCCC(CCCCCCCF)OC(=O)CCCCCCCN(CCO)CCCCCC(=O)OCCCCCCCCC(C)C (stereo not drawn) [Compound 28] | 1.65E+05 | 2.34E+05 | 5.09E+05
CCCCCCCCCOC(=O)C(C)CCCCCCN(CCCCO)CCCCCCCC(=O)OCC(CCCCCC)CCCCCCCCF (stereo not drawn) [Compound 85, nonyl 8-((8-((10-fluoro-2-hexyldecyl)oxy)-8-oxooctyl)(4-hydroxybutyl)amino)-2-methyloctanoate] | 7.47E+06 | 1.03E+07 | 6.32E+07
CCCCCCCCC(CCCCCCCCF)OC(=O)CCCCCCCN(CCCCCCC(C)C(=O)OCCCCCCCCC(C)C)CC(C)CO (stereo not drawn) [Compound 75, 9-methyldecyl 8-((8-((1-fluoroheptadecan-9-yl)oxy)-8-oxooctyl)(3-hydroxy-2-methylpropyl)amino)-2-methyloctanoate] | 1.59E+04 | 2.15E+04 | 4.51E+04
